Assay results from US7267975B2, “Methods and compositions relating to insect repellents from a novel endophytic fungus” (Montana State University, priority 2002, dated 2007).

System: adult wheat stem sawflies (C. cinctus)
Test: Y-tube olfactometry insect repellency test
Format: in vivo
Conditions: for Ratio: preference of insect to non-naphthalene side (control) of Y-tube vs. naphthalene source side of tube: control acetone on paper disk, 30 insects
Description: FIG. 1. A highly schematic drawing of the olfactory Y-tube used to measure insect behavior in the presence of various naphthalene sources. A 6.3 volt light source is placed at the base of the Y-tube as illustrated in the drawing.
In controlled, replicated experiments, both authentic naphthalene as well as M. vitigenus, were used as odor sources in Y-tube olfactometry tests (FIG. 1). […] Thirty successful trials using naphthalene test solution A (with a naphthalene release rate of 12 ng hr^−1) were completed (Table 1). Out of 30 insects, 24 responded by moving away from the naphthalene source. A second set of 30 successful trials were completed using naphthalene test solution B. Out of 30 insects, 21 were repelled by the naphthalene source. Finally, sixty successful trials were preformed using 0.0785 cm^2 fungal plugs (2-3 weeks old) of M. vitigenus as the odor source. Out of the 60 insects, 49 traveled away from the fungus and its volatiles. The results of both test concentrations of authentic naphthalene were statistically different from the acetone control test papers (Table 1). Insect behaviour in tests involving agar plugs containing M. vitigenus was also statistically different (a=0.001) from the controls (Table 1). […] Table 1. Influence of authentic naphthalene and M. vitigenus volatiles, containing mostly naphthalene, on the behavior of adult wheat stem sawflies (C. cinctus). Bioassay tests were conducted in Y-olfactory tubes.

Which “Insect behaviour (orientation) in the presence of the odor source” value (many of the insects tested, Y-tube) does the source give for c1ccc2ccccc2c1 [Authentic naphthalene, naphthalene] here?
Its value is “more disoriented than usual”.

And the “Number of insects moving away from the naphthalene source” value (out of 30 insects, naphthalene test solution A (release rate 12 ng hr^-1))?
The value was 24.

What about the “Number of insects repelled by the naphthalene source” value (out of 30 insects, naphthalene test solution B) of the same molecule?
The value was 21.

And the “Ratio: preference of insect to non-naphthalene side (control) of Y-tube vs. naphthalene source side of tube” value (test concentration (A), naphthalene release rate 12 ng hr^-1)?
Its value is 24/6.

And the “Ratio: preference of insect to non-naphthalene side (control) of Y-tube vs. naphthalene source side of tube” value (test concentration (B))?
Its value is 21/9.
